Data from patent publication US20180110742A1, “NMDA ANTAGONISTS FOR THE TREATMENT OF MENTAL DISORDERS WITH OCCURRENCE OF […]/OR IMPULSIVE BEHAVIOR” (ICM (INSTITUT DU CERVEAU ET DE LA MOELLE EPINIERE), priority 2015, published 2018).

Columns and labels:
rhesus monkeys = test: Delayed saccade oculomotor paradigm (inhibition of premature saccades) after i.m. ketamine or saline; format: in vivo, rhesus monkey
Description: FIG. 2 is a diagram showing the sequence of events. The trial started with the appearance of a fixation cross for a randomized duration followed by the appearance of two empty ‘boxes’, one at the center of the screen and at a 9-deg eccentric position. After the appearance of the two boxes, a target was flashed in the central one for 50 milliseconds. Extinction of the central target marked the beginning of the delay period that could last either 400, 900, 1400 or 1900 ms. At the end of the delay period, a target appeared for 50 ms in the eccentric box and the subject had to make a saccade to the eccentric box within a 400 ms grace period.
The experimental paradigm was designed to create a conflict between the urge to make a saccade to the peripheral box and the necessity to maintain fixation until the eccentric target appeared (FIG. 2). This required a strong inhibition of premature saccades before the appearance of the eccentric target.
A total of 14104 saccades were analyzed in the three monkeys of the present study (L, S, Y). […] Positive values represent saccades occurring after target onset. We classified saccades as visually-guided for latencies longer than 100 ms. Latencies shorter than 100 ms represent premature (anticipatory) saccades. It can be observed that in the control condition (dashed curve on FIG. 3A), average saccadic latencies tended on average to decrease with increasing delay duration, more premature saccades occurring during long delays. […] However, a significant interaction between injected product (placebo or ketamine) and delay duration was found (F3; 6.012=8.195; P=0.015). […] Saccades in short delay trials (400 or 900 ms delays) were less affected than saccades when the delay was longer (1400 or 1900 ms). This influence of ketamine on movement latency was reproducible between monkeys.
Three monkeys participated in the present study (referred to as L, S, Y). Apparatus
Subjects sat in darkness, facing a CRT screen, which presented stimuli at a frequency of 60 Hz. An EyeLink 1000 infrared eye tracking system (SR Research, Mississauga, Ontario) was used to record movements of the right eye at 1 KHz. All experiments were run with homemade stimulus generation software based on a real time Linux kernel (Xenomaï). Stimulus display and oculomotor data collection were synchronized on a frame-by-frame basis. Saccades were detected offline in MATLAB (MathWorks, Natic, Mass.) with a velocity threshold of 30 deg/sec.
Each trial started with an initial fixation period (referred to as ‘initial fixation’), with a small cross (0.7 deg) appearing on the CRT screen for a random duration (850±100 ms; see ‘X’ on FIG. 1). At the end of this random delay, two empty square ‘boxes’ appeared on the screen (1.4×1.4 deg), one in the center of the screen and one 9 deg eccentric, randomly to the right or to the left. […] Afterwards, a square target (1.4×1.4 deg) was flashed in the central box for 50 ms. Extinction of the initial target indicated to subjects the beginning of the delay period. Subjects were required to hold on fixation of the central box until another target (1.4×1.4 deg) was briefly presented for 50 ms in the eccentric box. In the variable fore period design, the delay period could take one of 4 different values with the same probability: 400 ms, 900 ms, 1400 ms and 1900 ms. In order to receive reward, subjects had to maintain fixation of the central box and wait for the appearance of the eccentric target. This required a strong inhibition of early saccades before the appearance of the eccentric target. Early saccades were not rewarded. This paradigm was designed to test inhibition during the delay period.
Each experimental session started with a block of 200 trials before injection to measure the baseline saccadic latency on a day-by-day basis. On a randomly selected day ketamine (0.250 mg/kg) was injected i.m. or a placebo saline solution (NaCl 0.9%) of the same volume (0.3 ml). […]

[1] = tested on: supplementary eye field (SEF) neurons; test: Single-neuron recordings of saccade-related and fixation neurons during the saccade task; format: in vivo, rhesus monkey; conditions: 0.25 mg/kg i.m.; for average neuronal activity of fixation units/neurons: delay and saccadic period, 0.25 mg/kg
Description: FIG. 9 is a graph showing the average neuronal activity (spike density) of 30 movement-related supplementary eye field (SEF) neurons during fixation (negative time), delay (between the two vertical dashed lines) and after saccade appearance (after the second dashed lined). Group data. A: delay duration: 400 ms. B: delay duration: 900 ms. C: delay duration: 1400 ms. D: delay duration: 1900 ms. […] This can be associated with the decrease of premature saccades.
FIG. 10 is a graph showing the average neuronal activity of “fixation” units during fixation, delay and saccadic period. Group data. A: delay duration: 400 ms. B: delay duration: 900 ms. C: delay duration: 1400 ms. D: delay duration: 1900 ms. […] This could be related to the enhanced inhibition capacity and reduction of impulsive behavior observed.
Neuronal activity of two animals was recorded on neurons with phasic discharge during the saccade (saccadic-relayed neurons, FIG. 9) and neurons with tonic activity when the eye is immobile (fixation neurons, FIG. 10). Average activity of 30 neurons is shown in the control condition (no ketamine) and after injection of 0.25 mg/kg ketamine i.m.
One male and one female rhesus monkey were used in this study. All procedures were approved by the Institutional Animal Care and Use Committee and were in compliance with the guidelines set forth in the United States Public Health Service Guide for the Care and Use of Laboratory Animals.
A celux recording chamber (Crist Instruments, Hagerstown, Md.) was positioned at 24 mm anterior in Horsley-Clark stereotaxic coordinates and centered on the midline of the brain in both monkeys. At the completion of the surgeries, animals were returned to their home cages. Antibiotics and analgesics were administered as needed during the recovery period under the direction of a veterinarian.
The monkeys were seated in a primate chair with their head restrained for the duration of the testing sessions. They were trained to execute the behavioral task described above for liquid reward and were allowed to work to satiation. Records of each animal's weight and health status were kept, and supplemental water was given as necessary. The monkeys had their heads immobilized and were trained to pursue spots of light projected on a tangent screen in front of them.
To record neuronal activity, a single tungsten microelectrode (FHC, Bowdoinham, Me.) of approximately 6 MΩ impedance at 1 kHz was lowered into the cortex through the dura using a Narishige microdrive. The position of the electrode was determined using a grid system (Crist et al., 1988). Action potentials of single units were isolated using an on-line spike-sorting system that uses a template-matching algorithm (Plexon Inc). A pulse was generated each time an action potential was detected and stored with a 1 ms resolution.
To analyze the time course of neuronal activity, spike trains were convolved with a Gaussian probability density in steps of 1 ms to generate the spike-density function (Richmond et al., 1987). The SD of the Gaussian function was set to 20 ms. The average spike density in each experimental condition was computed from all trials in which subjects pursued the target until the end of its trajectory.

[2] = higher doses, e.g. 0.6 mg/kg; cited from earlier work
[3] = Total of monkeys L, S, Y, 0.25 mg/kg i.m.

CNC1(c2ccccc2Cl)CCCCC1=O (stereo not drawn) [ketamine]
spontaneous nystagmus or centripetal drift of the eye (rhesus monkeys; 0.25 mg/kg): did not evoke spontaneous nystagmus or centripetal drift of the eye | latency variance (rhesus monkeys; 0.25 mg/kg i.m., as a function of delay duration): latency variance decreased | reduction of premature saccades by delay duration (rhesus monkeys; 0.25 mg/kg i.m., delay durations 400-1900 ms): particularly strong for long delay durations (1400 ms and 1900 ms) | saccadic latency as a function of delay duration (rhesus monkeys; 0.25 mg/kg i.m., delays 400, 900, 1400, 1900 ms, group data): prolonged saccadic latencies differently with increasing delay duration | saccadic latency (all saccades) (rhesus monkeys; 0.25 mg/kg i.m., group data of three monkeys, two blocks of trials following injection): altered saccadic latency | number of premature saccades (rhesus monkeys; 0.25 mg/kg i.m., group data, vs saline): strongly and significantly reduced | average premature saccade latency (rhesus monkeys; 0.25 mg/kg i.m., saccades with latency <100 ms, group data): not affected | Premature saccades (number) (rhesus monkeys; Monkey L, 0.25 mg/kg i.m.): 408 | Premature saccades (percentage of total) (rhesus monkeys; Monkey L, 0.25 mg/kg i.m.): (21%) | Visually guided saccades (number) (rhesus monkeys; Monkey L, 0.25 mg/kg i.m.): 1520 | Visually guided saccades (percentage of total) (rhesus monkeys; Monkey L, 0.25 mg/kg i.m.): (79% | saccade amplitude (rhesus monkeys; Monkey L, 0.25 mg/kg i.m., control 5.7±0.05 deg): 5.2±0.05 deg | decrease of the proportion of valid trials (rhesus monkeys; Monkey L, after ketamine injection 0.25 mg/kg i.m.): ~5% | Premature saccades (number) (rhesus monkeys; Monkey S, 0.25 mg/kg i.m.): 21 | Premature saccades (percentage of total) (rhesus monkeys; Monkey S, 0.25 mg/kg i.m.): (7%) | Visually guided saccades (number) (rhesus monkeys; Monkey S, 0.25 mg/kg i.m.): 2939 | Visually guided saccades (percentage of total) (rhesus monkeys; Monkey S, 0.25 mg/kg i.m.): (93%) | increase of the proportion of valid trials (rhesus monkeys; Monkey S, after ketamine injection 0.25 mg/kg i.m.): ~10% | Premature saccades (number) (rhesus monkeys; Monkey Y, 0.25 mg/kg i.m.): 150 | Premature saccades (percentage of total) (rhesus monkeys; Monkey Y, 0.25 mg/kg i.m.): (6%) | Visually guided saccades (number) (rhesus monkeys; Monkey Y, 0.25 mg/kg i.m.): 2537 | Visually guided saccades (percentage of total) (rhesus monkeys; Monkey Y, 0.25 mg/kg i.m.): (94%) | saccade amplitude (rhesus monkeys; Monkey Y, 0.25 mg/kg i.m., control 5.7±0.03 deg): 6.2±0.04 deg | proportion of valid trials (rhesus monkeys; Monkey Y, after ketamine injection 0.25 mg/kg i.m.): unchanged | premature saccades after single injection (saccadic latency vs trial number) (rhesus monkeys; Monkey Y, single injection): sharp decrease of premature saccades | trials after injection until the number of early anticipatory saccades was strongly reduced (rhesus monkeys; Monkey Y, single injection 0.25 mg/kg i.m.): Approximately 100 trials | return of premature saccades frequency to control levels (rhesus monkeys; Monkey Y, single injection 0.25 mg/kg i.m., blocks of 200 trials): Only during the third block following injection | trials until cumulated sums of latencies of control and ketamine diverged (rhesus monkeys; Monkeys Y and L, 13 injections, 0.25 mg/kg i.m.): approximately 75 trials | Premature saccades (number) (rhesus monkeys; [3]): 579 | Visually guided saccades (number) (rhesus monkeys; [3]): 6996 | time for ketamine to affect saccade latency (rhesus monkeys; after the onset of the second block of trials, single trial 3300 ms on average): approximately 4 minutes | average difference in the latency of visually-guided saccade between conditions (rhesus monkeys; ketamine 0.25 mg/kg i.m. vs saline, saccades with latency >100 ms, group data): approx. 10 ms | saccade amplitude, group data (rhesus monkeys; monkeys L and Y, 0.25 mg/kg i.m., 0.25 mg/kg): did not reduce saccade amplitude | saccade amplitude, group data (rhesus monkeys; monkeys L and Y, 0.25 mg/kg i.m., listed as Ketamine, 0.25 mg/kg): modestly reduced saccadic amplitude | saccade amplitude changes (rhesus monkeys; monkeys L and Y, ketamine vs control): ~10% | proportion of valid trials, group level (rhesus monkeys; three monkeys, 0.25 mg/kg i.m.): did not statistically alter the proportion of valid trials | activity of premotor saccadic neurons ([1]; two animals): decreases the activity of premotor saccadic neurons | average neuronal activity of movement-related SEF neurons after target appearance ([1]; 30 neurons): reduces activity after target appearance | average neuronal activity (spike density) of movement-related SEF neurons during the delay period ([1]; 30 neurons, delays 400-1900 ms): reduces neuronal activity during the delay period | average neuronal activity of fixation units/neurons [1]: increases the activity of fixation neurons | average neuronal activity of fixation units/neurons ([1]; listed as Ketamine): increased the fixation, delay and initial saccadic period | spontaneous nystagmus or centripetal drift of the eye [2]: could be observed with higher doses
